Experimental data: patent US20230382924A1, “MODULATORS OF CYSTIC FIBROSIS TRANSMEMBRANE CONDUCTANCE REGULATOR” (VERTEX PHARMACEUTICALS INCORPORATED, priority 2020, published 2023)
Where two headings read alike, the source gives them in different places.

Target: CFTR (Homo sapiens, UniProt P13569)
Assay: Membrane Potential Dye, Enteroid Assay A
Assay type: cell-based
Conditions: for EC50: read-out: Ent. A EC50
Protocol: Base medium (ADF+++) consisted of Advanced DMEM/Ham's F12, 2 mM Glutamax, 10 mM HEPES, […] penicillin/streptomycin.
Bath 1 Buffer consisted of 1 mM MgCl2, 160 mM NaCl, 4.5 mM KCl, 10 mM HEPES, 10 mM Glucose, 2 mM CaCl2).
Chloride Free Buffer consisted of 1 mM Magnesium Gluconate, 2 mM Calcium Gluconate, 4.5 mM Potassium Gluconate, 160 mM Sodium Gluconate, 10 mM HEPES, 10 mM Glucose.
Bath 1 Dye Solution consisted of Bath 1 Buffer, 0.04% Pluronic F127, 20 μM Methyl Oxonol, 30 μM CaCCinh-A01, 30 μM Chicago Sky Blue.
Chloride Free Dye Solution consisted of Chloride Free Buffer, 0.04% Pluronic F127, 20 μM Methyl Oxonol, 30 μM CaCCinh-A01, 30 μM Chicago Sky Blue.
3. Enteroid Cell Harvesting and Seeding
Cells were recovered in cell recovery solution, collected by centrifugation at 650 rpm for 5 min at 4° C., resuspended in TryPLE and incubated for 5 min at 37° C. Cells were then collected by centrifugation at 650 rpm for 5 min at 4° C. and resuspended in IEMM containing 10 μM ROCK inhibitor (RI).
4. Membrane Potential Dye, Enteroid Assay A
Briefly, cells were washed 5 times in Bath 1 Buffer. Bath 1 Dye Solution was added, and the cells were incubated for 25 min at room temperature. Following dye incubation, cells were washed 3 times in Chloride Free Dye Solution. Chloride transport was initiated by addition of Chloride Free Dye Stimulation Solution and the fluorescence signal was read for 15 min. […] Chloride transport was then expressed as a percentage of the chloride transport following treatment with 3 μM N-[(6-amino-2-pyridyl)sulfonyl]-6-(3-fluoro-5-isobutoxy-phenyl)-2-[(4S)-2,2,4-trimethylpyrrolidin-1-yl]pyridine-3-carboxamide, 3 μM (R)-1-(2,2-difluorobenzo[d][1,3]dioxol-5-yl)-N-(1-(2,3-dihydroxypropyl)-6-fluoro-2-(1-hydroxy-2-methylpropan-2-yl)-1H-indol-5-yl)cyclopropanecarboxamide and 300 nM acute N-[2,4-bis(1,1-dimethylethyl)-5-hydroxyphenyl]-1,4-dihydro-4-oxoquinoline-3-carboxamide triple combination control (% Activity).

CFTR, sequence (P13569 with tags, fused parts or gaps DEL508-508): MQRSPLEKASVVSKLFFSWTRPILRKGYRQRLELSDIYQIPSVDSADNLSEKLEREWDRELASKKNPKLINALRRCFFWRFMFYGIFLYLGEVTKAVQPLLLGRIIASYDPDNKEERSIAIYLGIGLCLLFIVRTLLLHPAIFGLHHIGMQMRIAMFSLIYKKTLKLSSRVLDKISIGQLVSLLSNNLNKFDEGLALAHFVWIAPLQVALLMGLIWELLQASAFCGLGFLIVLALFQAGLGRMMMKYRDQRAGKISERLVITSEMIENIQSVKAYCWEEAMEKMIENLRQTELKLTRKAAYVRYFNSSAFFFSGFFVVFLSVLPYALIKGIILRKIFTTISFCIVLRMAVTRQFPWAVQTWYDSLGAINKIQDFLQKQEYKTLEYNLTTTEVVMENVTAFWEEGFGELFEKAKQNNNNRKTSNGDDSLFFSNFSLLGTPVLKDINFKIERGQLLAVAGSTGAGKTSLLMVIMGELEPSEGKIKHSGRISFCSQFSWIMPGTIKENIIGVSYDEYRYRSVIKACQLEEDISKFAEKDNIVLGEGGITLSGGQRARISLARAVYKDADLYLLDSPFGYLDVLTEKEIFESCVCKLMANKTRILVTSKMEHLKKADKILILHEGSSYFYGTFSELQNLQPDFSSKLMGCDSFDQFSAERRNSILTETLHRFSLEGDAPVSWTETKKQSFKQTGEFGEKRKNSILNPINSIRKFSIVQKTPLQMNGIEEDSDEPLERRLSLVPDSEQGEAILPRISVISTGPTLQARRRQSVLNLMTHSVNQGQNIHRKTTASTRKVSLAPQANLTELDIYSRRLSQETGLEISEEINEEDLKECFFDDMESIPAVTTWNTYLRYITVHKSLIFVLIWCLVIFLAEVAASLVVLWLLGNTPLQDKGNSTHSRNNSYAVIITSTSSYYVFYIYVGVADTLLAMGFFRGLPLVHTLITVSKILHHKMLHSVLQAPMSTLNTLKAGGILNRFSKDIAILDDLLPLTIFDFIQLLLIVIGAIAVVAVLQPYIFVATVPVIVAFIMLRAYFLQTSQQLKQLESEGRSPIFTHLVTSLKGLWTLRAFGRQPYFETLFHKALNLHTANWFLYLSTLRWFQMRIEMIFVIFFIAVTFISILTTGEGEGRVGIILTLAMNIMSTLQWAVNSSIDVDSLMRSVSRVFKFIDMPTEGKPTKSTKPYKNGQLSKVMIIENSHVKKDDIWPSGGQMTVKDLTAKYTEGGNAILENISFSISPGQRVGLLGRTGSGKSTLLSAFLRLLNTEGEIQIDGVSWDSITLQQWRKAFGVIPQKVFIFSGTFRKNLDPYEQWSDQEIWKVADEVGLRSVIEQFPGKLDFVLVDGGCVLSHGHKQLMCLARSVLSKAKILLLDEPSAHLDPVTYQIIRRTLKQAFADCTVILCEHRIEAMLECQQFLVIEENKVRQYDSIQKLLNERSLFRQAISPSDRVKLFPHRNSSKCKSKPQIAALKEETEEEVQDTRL

SMILES	Ent. A Max Activity (Table 9)	EC50 (Table 9) [µM]	Ent. A Max Activity (Enteroid Assay A)	EC50 (Enteroid Assay A) [µM]	other results
Cc1cccc(C)c1-c1cc2nc(n1)NS(=O)(=O)c1cccc(c1)C(=O)N[C@@H]1Cc3ccccc3[C@@H]1O2 (stereo in doubt) [Compound 246]					Ent. A Max Activity (Table 8): +++ (+++ is >60%); EC50 (Table 8): < 1 µM
Cc1cccc(C)c1-c1cc2nc(n1)NS(=O)(=O)c1cccc(c1)C(=O)NC(C(=O)NC1CCCCC1)CO2 (stereo not shown) [Compound 237]					Ent. A Max Activity (Table 8): + (+ is <30%)
Cc1ccccc1C1CNC(=O)c2cccc(c2)S(=O)(=O)Nc2nc(cc(-c3c(C)cccc3C)n2)O1 (stereo not shown) [Compound 279]					Ent. A Max Activity (Table 8): +++ (+++ is >60%); EC50 (Table 8): < 1 µM
CC(C)C[C@@H]1COc2cc(-c3ccccc3Oc3ccccc3)nc(n2)NS(=O)(=O)c2cccc(c2)C(=O)N1 [Compound 392]	++ (++ is 30-60%)	< 1			
CC(C)C[C@@H]1COc2cc(C3C(C)CCCC3C)nc(n2)NS(=O)(=O)c2cccc(c2)C(=O)N1 (stereo partly shown) [Compound 301]					EC50 (Table 8): 3 to 30 µM
Cc1cccc(C)c1-c1cc2nc(n1)NS(=O)(=O)c1cccc(c1)C(=O)NCC1(CCN(C(=O)c3cc4ccccc4n3CC#N)CC1)CO2 [Compound 452]			++ (++ is 30-60%)	1 to 3	
Cc1cccc(C)c1-c1cc2nc(n1)NS(=O)(=O)c1cccc(c1)C(=O)NCC(c1ccc(CC[Si](C)(C)C)cc1)O2 (stereo not shown) [Compound 127]		< 1			
Cc1cccc(C)c1-c1cc2nc(n1)NS(=O)(=O)c1cccc(c1)C(=O)N[C@@H](CC(F)(F)F)CO2 (single isomer, unassigned) [Compound 93, 6-(2,6-dimethylphenyl)-11-(2,2,2-trifluoroethyl)-9-oxa-2λ^6-thia-3,5,12,19-tetraazatricyclo[12.3.1.14,8]nonadeca-1(17),4(19),5,7,14(18),15-hexaene-2,2,13-trione]	++ (++ is 30-60%)	3 to 30			
COC(=O)c1cc(CN2CCC3(CC2)CNC(=O)c2cccc(c2)S(=O)(=O)Nc2nc(cc(-c4c(C)cccc4C)n2)OC3)ccc1F [Compound 437]			++ (++ is 30-60%)	3 to 30	
CCC1CC=C(c2cc3nc(n2)NS(=O)(=O)c2cccc(c2)C(=O)N[C@H](CC(C)C)CO3)CC1 (stereo partly shown) [Compound 322]			++ (++ is 30-60%)	1 to 3	
Cc1cccc(C)c1-c1cc2nc(n1)NS(=O)(=O)c1cccc(c1)C(=O)N[C@@H]1CN(C3CC4(CCCCC4)C3)CC[C@H]1O2 [Compound 60, (3R,8R)-20-(2,6-Dimethylphenyl)-6-{spiro[3.5]nonan-2-yl}-2-oxa-16λ^6-thia-6,9,17,19,22-pentaazatetracyclo[16.3.1.111,15.03,8]tricosa-1(21),11,13,15(23),18(22),19-hexaene-10,16,16-trione]	+++ (+++ is >60%)	< 1			
CCCC(NC(=O)OC(C)(C)C)C(=O)N1CCC2(CC1)CNC(=O)c1cccc(c1)S(=O)(=O)Nc1nc(cc(-c3c(C)cccc3C)n1)OC2 (stereo not shown) [Compound 449]			++ (++ is 30-60%)		
Cc1cccc(C)c1-c1cc2nc(n1)NS(=O)(=O)c1cccc(c1)C(=O)N[C@H](c1ccccc1)CO2 [Compound 352]			+++ (+++ is >600%)	< 1	
Cc1cccc(C)c1-c1cc2nc(n1)NS(=O)(=O)c1cccc(c1)C(=O)N[C@H](CC(C)C)CCO2 [Compound 225]	+++ (+++ is >60%)	< 1			
Cc1cccc(C)c1-c1cc2nc(n1)NS(=O)(=O)c1cccc(c1)C(=O)NCC(c1cccc(C#N)c1)O2 (stereo not shown) [Compound 252]					EC50 (Table 8): 3 to 30 µM
Cc1cccc(C)c1-c1cc2nc(n1)NS(=O)(=O)c1cccc(c1)C(=O)NCC1(CCN(Cc3cccc(OC(F)(F)F)c3F)CC1)CO2 [Compound 431]			++ (++ is 30-60%)	< 1	

SMILES	Ent. A Max Activity (Table 9)	EC50 (Table 9) [µM]	Ent. A Max Activity (Enteroid Assay A)	EC50 (Enteroid Assay A) [µM]	other results
Cc1cccc(C)c1-c1cc2nc(n1)NS(=O)(=O)c1cccc(c1)C(=O)N[C@H]1CCN(C3CC4(CCCC4)C3)C[C@H]1O2 [Compound 384]	+++ (+++ is >60%)	1 to 3			
Cc1cccc(C)c1-c1cc2nc(n1)NS(=O)(=O)c1cccc(c1)C(=O)N[C@@H]1CCN(C3CC4(CCCC4)C3)C[C@H]1O2 (stereo in doubt) [Compound 385]	+ (+ is <30%)	3 to 30			
Cc1cccc(C)c1-c1cc2nc(n1)NS(=O)(=O)c1cccc(c1)C(=O)N[C@H](CC1CCOCC1)CO2 (stereo in doubt) [Compound 191]			+++ (+++ is >600%)	3 to 30	
CC(C)C[C@@H]1COc2cc(-c3ccccc3C3CC3)nc(n2)NS(=O)(=O)c2cccc(c2)C(=O)N1 [Compound 105, (11R)-6-(2-cyclopropylphenyl)-11-(2-methylpropyl)-9-oxa-2λ^6-thia-3,5,12,19-tetraazatricyclo[12.3.1.14,8]nonadeca-1(17),4(19),5,7,14(18),15-hexaene-2,2,13-trione]			+++ (+++ is >600%)	< 1	
Cc1ccccc1[C@@H]1Oc2cc(-c3c(C)cccc3C)nc(n2)NS(=O)(=O)c2cccc(c2)C(=O)N[C@@H]1CC(C)C [Compound 162]				< 1	
Cc1cccc(C)c1-c1cc2nc(n1)NS(=O)(=O)c1cccc(c1)C(=O)NCC1(CCN(Cc3ccc(NC(=O)OC(C)(C)C)nc3)CC1)CO2 [Compound 433]			++ (++ is 30-60%)	3 to 30	
Cc1cccc(C)c1-c1cc2nc(n1)NS(=O)(=O)c1cccc(c1)C(=O)NC[C@@H](c1ccccn1)O2 [Compound 233]					Ent. A Max Activity (Table 8): + (+ is <30%)
Cc1cccc(C)c1-c1cc2nc(n1)NS(=O)(=O)c1cccc(c1)C(=O)NCC(c1ccc(CC(C)(C)C)cc1)O2 (stereo not shown) [Compound 264]	+ (+ is <30%)	< 1			
Cc1cccc(C)c1-c1cc2nc(n1)NS(=O)(=O)c1cccc(c1)C(=O)NC1(CCC(C(C)(C)C)CC1)CO2 (stereo not shown) [Compound 495]	+++ (+++ is >60%)	< 1			
Cc1cccc(C)c1-c1cc2nc(n1)NS(=O)(=O)c1cccc(c1)C(=O)NCC(Cc1ccc(C(C)(C)C)cc1)O2 (stereo not shown) [Compound 241]					Ent. A Max Activity (Table 8): +++ (+++ is >60%); EC50 (Table 8): < 1 µM
CCC[C@H](NC(=O)OC(C)(C)C)C(=O)N1CCC2(CC1)CNC(=O)c1cccc(c1)S(=O)(=O)Nc1nc(cc(-c3c(C)cccc3C)n1)OC2 [Compound 469]			++ (++ is 30-60%)	3 to 30	
CCC[C@H]1NC(=O)c2cccc(c2)S(=O)(=O)Nc2nc(cc(-c3c(C)cccc3C)n2)O[C@@H]1c1ccc(C(C)(C)C)cc1 [Compound 227]	+++ (+++ is >60%)	< 1			
CC(C)C[C@@H]1COc2cc(-c3ccnn3C(C)C)nc(n2)NS(=O)(=O)c2cccc(c2)C(=O)N1 [Compound 341]			++ (++ is 30-60%)		
Cc1cccc(C)c1-c1cc2nc(n1)NS(=O)(=O)c1cccc(c1)C(=O)NCCCC(c1ccc(C(C)(C)C)cc1)O2 (stereo not shown) [Compound 54, 10-(4-tert-butylphenyl)-6-(2,6-dimethylphenyl)-2,2-dioxo-9-oxa-2λ^6-thia-3,5,14,21-tetrazatricyclo[14.3.1.14,8]henicosa-1(20),4(21),5,7,16,18-hexaen-15-one]	+++ (+++ is >60%)	< 1			
COc1cccc(C2CNC(=O)c3cccc(c3)S(=O)(=O)Nc3nc(cc(-c4c(C)cccc4C)n3)O2)c1 (stereo not shown) [Compound 158]					Ent. A Max Activity (Table 8): +++ (+++ is >60%); EC50 (Table 8): < 1 µM
Cc1cccc(C)c1-c1cc2nc(n1)NS(=O)(=O)c1cccc(c1)C(=O)NCC1(CCN(C(=O)c3ccccc3)CC1)CO2 [Compound 474]				3 to 30	
